What was measured:
[1] = molecular target: farnesyltransferase (FTase); conditions: cited from earlier work
[2] = system: heart failure; conditions: human, in vivo; cited from earlier work
[3] = 8 h; cited from earlier work
[4] = system: CCR2 mRNA; assay: Inhibition of CCR2 mRNA level in MDSCs; assay type: cell-based; conditions: Mus musculus, 2 h, read-out: Suppression Rate (inhibition of CCR2 mRNA levels)
Procedure: Under sterile conditions, the tibia was removed, both ends of the bone were cut, and bone marrow was repeatedly flushed into a 15 mL centrifuge tube using a 1 mL syringe filled with culture medium. Centrifuge at 1600 rpm for 5 min to collect bone marrow cells. […] Count cells and adjust density to 1×10^6 cells/mL in complete medium. Seed cells uniformly into 6-well plates at 2 mL per well. […] After incubation, collect cells into centrifuge tubes, centrifuge at 1600 rpm for 5 min, wash once with 1×PBS, and add 500 μL RNA extraction reagent to each tube. After centrifugation to obtain the pellet, add 20 μL DEPC-treated water to each tube to dissolve the pellet. Determine RNA concentration and reverse transcribe to cDNA. Add the cDNA, primers, and […] to a 96-well plate. Centrifuge at 4000 rpm for 5 min, then place in a PCR instrument for detection.

[5] = system: rat arthritis; conditions: in vivo; cited from earlier work
[6] = Safety evaluation, mouse body weight (30 days oral); assay type: in vivo, C57BL/6 mice; design: Mouse body weight: unit not given here; conditions: for Mouse body weight: oral gavage once daily
Text: (§1) The Normal group received an equal volume of solvent (saline).

[7] = system: IgE and inflammatory markers of AD mice; assay: MC903-induced atopic dermatitis, oral administration: serum IgE and ear mRNA of inflammatory markers; assay type: in vivo, mouse; design: scale not given here
Procedure: Except for the Normal group, all other groups underwent AD modeling: 20 μL of MC903 solution (also known as calcipotriol, purchased from Shanghai Yuanye Biotechnology Co., Ltd., used for inducing atopic models) was applied to each mouse's ears once daily for 14 consecutive days to induce the atopic dermatitis model. […] Measure ear thickness changes every 2 days using an electronic caliper before modeling and after treatment initiation.

[8] = Safety evaluation, mouse survival rate (30 days oral); assay type: in vivo, C57BL/6 mice; conditions: for survival at 720 h: mouse, in vivo, female, oral
Text: as §1

[9] = system: inflammatory factors Il1b, Il6 and Hscrp in serum; assay: HFD-induced atherosclerosis, serum Il1b, Il6 and Hscrp; assay type: in vivo, APOE−/− mice; design: Serum Il1b / Serum Il6 / Serum Hscrp: unit not given here; conditions: for Serum Hscrp / Serum Il1b / Serum Il6: 8 weeks
Procedure: (§2) Experimental animals: C57BL and APOE^−/− mice, male, 8 weeks old, purchased from GemPharmatech LLC. Production license number: SCXK(Su)2023-0009. […] They were acclimated for 7 days before use in experiments.
(§3) Normal group (C57BL), model group (HFD/APOE^−/−), positive control drug VTX3232 (10 mg/kg) group, compound 103 (0.3, 1, 3, 10 and 30 mg/kg) group, with 6 mice per group. Oral administration was performed continuously for 8 weeks.
(§4) Allow blood to stand at room temperature for 2 hours, then centrifuge at 3000 rpm for 20 minutes. Aspirate the serum, aliquot it, and store at −70° C. for future use. After blood collection, euthanize mice by cervical dislocation. Open the abdominal cavity, remove heart and aorta. […] Store remaining tissues at −80° C. for future use.
(§5) Serum Total Il1, Il6 and Hscrp Assay: For each sample, 10 μL of serum was used for […]. Samples were added sequentially strictly according to the kit instructions, incubated at 37° C., and measured for absorbance values using an enzyme-linked immunosorbent assay (ELISA) reader. The concentration levels of each indicator were calculated based on the standard curve.

[10] = system: serum TC and TG; assay: HFD-induced atherosclerosis, serum total cholesterol and triglyceride; assay type: in vivo, APOE−/− mice; design: Serum TC / Serum TG: unit not given here; conditions: for Serum TC / Serum TG: 8 weeks
Procedure: as §2, §3, §4
as §5, with “Cholesterol (TC)” for “Il1, Il6”, “Triglyceride (TG)” for “Hscrp”

## C=C1C(=O)O[C@@H]2[C@H]3C(C)=CC[C@@]34O[C@@]4(C)CC[C@@H]12 [Arg, Arglabin, reference compound]
[1]
  IC50 for inhibiting H-Ras protein farnesylation: only at the micromolar level
[2]
  cardiac inflammation: inhibited
[3]
  degradation rate in gastric fluid: 50%
[4]
  inhibition at 1 µM: 22.3%
  inhibition at 10 µM: 69.7%
[5]
  joint swelling: significantly suppressed
  serum levels of TNF-α, IL-1β, and IL-6: lowered

## CN(C)C[C@@H]1C(=O)O[C@H]2[C@H]1CC[C@@]1(C)C[C@]13CC[C@@](C)(O)[C@H]23 [Compound 20]
[6]; 500, 1000 mg/kg oral, 30 days, P>0.05
  body weight: no significant effect
[6]; female, 500 mg/kg, day 1
  Mouse body weight: 100.00 ± 0.00
[6]; female, 500 mg/kg, day 5
  Mouse body weight: 100.41 ± 0.43
[6]; female, 500 mg/kg, day 10
  Mouse body weight: 99.01 ± 1.34
[6]; female, 500 mg/kg, day 15
  Mouse body weight: 100.03 ± 0.95
[6]; female, 500 mg/kg, day 20
  Mouse body weight: 100.52 ± 0.74
[6]; female, 500 mg/kg, day 25
  Mouse body weight: 99.81 ± 1.72
[6]; female, 500 mg/kg, day 30
  Mouse body weight: 99.79 ± 2.55
[6]; female, 1000 mg/kg, day 1
  Mouse body weight: 100.00±0.00
[6]; female, 1000 mg/kg, day 5
  Mouse body weight: 101.96 ± 0.55
[6]; female, 1000 mg/kg, day 10
  Mouse body weight: 101.80 ± 2.02
[6]; female, 1000 mg/kg, day 15
  Mouse body weight: 99.77 ± 2.60
[6]; female, 1000 mg/kg, day 20
  Mouse body weight: 101.04 ± 2.13
[6]; female, 1000 mg/kg, day 25
  Mouse body weight: 99.06 ± 3.56
[6]; female, 1000 mg/kg, day 30
  Mouse body weight: 100.67 ± 0.91
[6]; male, 500 mg/kg, day 1
  Mouse body weight: 100.00 ± 0.00
[6]; male, 500 mg/kg, day 5
  Mouse body weight: 100.31 ± 0.89
[6]; male, 500 mg/kg, day 10
  Mouse body weight: 101.51 ± 4.00
[6]; male, 500 mg/kg, day 15
  Mouse body weight: 99.27 ± 2.11
[6]; male, 500 mg/kg, day 20
  Mouse body weight: 101.29 ± 0.40
[6]; male, 500 mg/kg, day 25
  Mouse body weight: 98.93 ± 0.60
[6]; male, 500 mg/kg, day 30
  Mouse body weight: 100.10 ± 1.08
[6]; male, 1000 mg/kg, day 1
  Mouse body weight: 100.00 ± 0.00
[6]; male, 1000 mg/kg, day 5
  Mouse body weight: 101.48 ± 1.30
[6]; male, 1000 mg/kg, day 10
  Mouse body weight: 101.22 ± 0.84
[6]; male, 1000 mg/kg, day 15
  Mouse body weight: 100.47 ± 1.28
[6]; male, 1000 mg/kg, day 20
  Mouse body weight: 100.15 ± 2.76
[6]; male, 1000 mg/kg, day 25
  Mouse body weight: 98.35 ± 1.14
[6]; male, 1000 mg/kg, day 30
  Mouse body weight: 100.71 ± 0.53
[7]; 0.1 mg/kg oral
  I14 mRNA expression, ear: 2.77 ± 0.16
  I113 mRNA expression, ear: 2.04 ± 0.20
  I131 mRNA expression, ear: 2.64 ± 0.22
  TSLP mRNA expression, ear: 3.38 ± 0.51
  Tnf mRNA expression, ear: 4.04 ± 0.50
[7]; 1 mg/kg oral
  I14 mRNA expression, ear: 2.65 ± 0.22
  I113 mRNA expression, ear: 1.82 ± 0.21
  TSLP mRNA expression, ear: 2.36 ± 0.32
  Tnf mRNA expression, ear: 2.63 ± 0.55
[7]; 10 mg/kg oral
  I14 mRNA expression, ear: 2.09 ± 0.26
  I113 mRNA expression, ear: 1.66 ± 0.30
  I131 mRNA expression, ear: 1.68 ± 0.13
  TSLP mRNA expression, ear: 1.33 ± 0.13
  Tnf mRNA expression, ear: 1.22 ± 0.18
[8]; 500 and 1000 mg/kg oral
  survival rate: no significant effect
[8]; 500 mg/kg
  survival at 720 h: 100%
[8]; 1000 mg/kg
  survival at 720 h: 100%

## CC1=C2CC[C@@](C)(OC(=O)N3CCCC3)[C@@H]2[C@H]2OC(=O)[C@@H](CN3CCCC3)[C@@H]2CC1 [Compound 103]
[9]; 0.3 mg/kg, oral
  Serum Hscrp: 9.67 ± 1.25
  Serum Il1b: 277.35 ± 176.70
  Serum Il6: 95.42 ± 26.76
[9]; 1 mg/kg, oral
  Serum Hscrp: 7.25 ± 0.77
  Serum Il1b: 255.38 ± 185.47
  Serum Il6: 90.32 ± 8.01
[9]; 3 mg/kg, oral
  Serum Hscrp: 6.67 ± 0.46
  Serum Il1b: 173.42 ± 132.43
  Serum Il6: 82.19 ± 4.83
[9]; 10 mg/kg, oral
  Serum Hscrp: 5.80 ± 0.41
  Serum Il1b: 77.91 ± 41.08
  Serum Il6: 50.08 ± 9.76
[9]; 30 mg/kg oral
  Serum Hscrp: 4.88 ± 0.63
  Serum Il1b: 62.93 ± 23.79
  Serum Il6: 34.82 ± 20.80
[9]; 0.3, 1, 3, 10, 30 mg/kg oral
  serum Il1b, Il6 and Hscrp levels compared with the model group: markedly lower
[10]; 0.3 mg/kg, oral
  Serum TC: 18.86 ± 1.44
  Serum TG: 2.69 ± 0.86
[10]; 1 mg/kg, oral
  Serum TC: 18.71 ± 1.45
  Serum TG: 2.87 ± 0.42
[10]; 3 mg/kg, oral
  Serum TC: 17.44 ± 1.83
  Serum TG: 2.56 ± 0.93
[10]; 10 mg/kg, oral
  Serum TC: 17.75 ± 1.62
  Serum TG: 3.01 ± 0.89
[10]; 30 mg/kg oral
  Serum TC: 17.65 ± 1.35
  Serum TG: 2.91 ± 0.59
[10]; 0.3, 1, 3, 10, 30 mg/kg oral
  serum TC and TG levels compared with the model group: no significant changes

Reference: patent publication US20260315434A1, “USE OF GUAIACOL SESQUITERPENE LACTONE DERIVATIVES” (NANJING UNIVERSITY OF CHINESE MEDICINE, priority 2023, published 2026)
